Data as given in a polymer gas permeability compilation.

SMILES | CH4 permeability [Barrer] | CO2 permeability [Barrer] | H2 permeability [Barrer] | N2 permeability [Barrer] | O2 permeability [Barrer]
*/C(C)=C(/*)[Si](C)(C)CCCC (repeat unit) | 17 | 100 | 65 | 8 | 29
*C(=C(*)c1ccc2c(c1)C(C)(C)c1cc([Si](C)(C)C)ccc1-2)c1ccccc1 (repeat unit) | 10000 | 18000 | 8500 | 3400 | 5400
*C(=C(*)c1ccc2c(c1)C(C)(C)c1ccccc1-2)c1ccc(F)c(F)c1 (repeat unit) | 12000 | 26000 | 11000 | 5100 | 6600
*c1ccc(-c2ccc(Oc3ccc(C4(c5ccc(Oc6ccc(-c7ccc(N8C(=O)c9ccc(Oc%10ccc(C(C)(C)c%11ccc(Oc%12ccc%13c(c%12)C(=O)N(*)C%13=O)cc%11)cc%10)cc9C8=O)cc7)cc6C(F)(F)F)cc5)c5ccccc5C(=O)N4c4ccccc4)cc3)c(C(F)(F)F)c2)cc1 (repeat unit) | 0.84 | 16.6 | – | 0.95 | 4.25
*c1ccc(-c2ccc(Oc3ccc4c(c3)C(C)(c3ccc(Oc5ccc(-c6ccc(-n7c(=O)c8cc9c(=O)n(*)c(=O)c9cc8c7=O)cc6)cc5C(F)(F)F)cc3)CC4(C)C)c(C(F)(F)F)c2)cc1 (repeat unit) | 1.52 | 44.7 | – | 2.36 | 12.2
*c1ccc(-c2ccc(Oc3ccc4c(c3)C3(CC4(C)C)CC(C)(C)c4ccc(Oc5ccc(-c6ccc(N7C(=O)c8ccc(Oc9ccc%10c(c9)C(=O)N(*)C%10=O)cc8C7=O)cc6)cc5C(F)(F)F)cc43)c(C(F)(F)F)c2)cc1 (repeat unit) | 0.41 | 22.6 | – | 1.12 | 13.1
*c1ccc(-c2nnc(-c3cccc(-c4nnc(*)n4-c4ccccc4)c3)n2-c2ccccc2)cc1 (repeat unit) | 0.09 | 5.2 | – | 0.14 | 1.16
*c1ccc(C(C)(C)c2ccc(-c3nc4cc(-c5ccc6[nH]c(*)nc6c5)ccc4[nH]3)cc2)cc1 (repeat unit) | 0.07 | 2.91 | 12.2 | 0.13 | 0.6
*c1ccc(C(C)(C)c2ccc(N3C(=O)c4ccc(C(c5ccc6c(c5)C(=O)N(*)C6=O)(C(F)(F)F)C(F)(F)F)cc4C3=O)cc2)cc1 (repeat unit) | 0.698 | 30 | – | 1.34 | 7.5
*c1ccc(C(C)(C)c2ccc(N3C(=O)c4ccc(Oc5ccc(Oc6ccc7c(c6)C(=O)N(*)C7=O)cc5)cc4C3=O)cc2)cc1 (repeat unit) | 0.0692 | 2.65 | 9.33 | 0.104 | 0.586
*c1ccc(C(c2ccc(-c3nnc(*)n3-c3ccc(O)cc3)cc2)(C(F)(F)F)C(F)(F)F)cc1 (repeat unit) | 6.69 | 268 | – | 10.2 | –
*c1ccc(C(c2ccc(-c3nnc(*)o3)cc2)(C(F)(F)F)C(F)(F)F)cc1 (repeat unit) | 4.55 | 123 | – | 6.1 | –
*c1ccc(C(c2ccc(-n3c(=O)c4cc5c(=O)n(*)c(=O)c5cc4c3=O)cc2)(C(F)(F)F)C(F)(F)F)cc1 (repeat unit) | 0.78 | 27.7 | 59.1 | 1.39 | 7.1
*c1ccc(C(c2ccc(-n3c(=O)c4cc5oc6cc7c(cc6oc5cc4c3=O)C3(CC(C)(C)c4cc5oc6cc8c(=O)n(*)c(=O)c8cc6oc5cc43)CC7(C)C)cc2)(C(F)(F)F)C(F)(F)F)cc1 (repeat unit) | 27 | 520 | 360 | 23 | 85
*c1ccc(C(c2ccc(N3C(=O)c4ccc(-c5ccc6c(c5)C(=O)N(*)C6=O)cc4C3=O)cc2)(C(F)(F)F)C(F)(F)F)cc1 (repeat unit) | 0.611 | 22.1 | – | 0.979 | 5.22
*c1ccc(C(c2ccc(N3C(=O)c4ccc(C(c5ccc6c(c5)C(=O)N(*)C6=O)(C(F)(F)F)C(F)(F)F)cc4C3=O)cc2)(C(F)(F)F)C(F)(F)F)cc1 (repeat unit) | 1.6 | 63.9 | 108 | 3.36 | 16.2
*c1ccc(C(c2ccc(N3C(=O)c4ccc(Oc5cc(C)c(Oc6ccc7c(c6)C(=O)N(*)C7=O)c(C)c5C)cc4C3=O)cc2)(C(F)(F)F)C(F)(F)F)cc1 (repeat unit) | 1.7 | 54 | 77 | 1.9 | 9.3
*c1ccc(C2(c3ccc(*)cc3)c3ccccc3-c3ccccc32)cc1 (repeat unit) | 0.84 | 35.6 | – | 1.36 | 6.8
*c1ccc(Cc2ccc(-n3c(=O)c4cc5c(=O)n(*)c(=O)c5cc4c3=O)cc2)cc1 (repeat unit) | 0.0576 | 2.5 | 6.61 | 0.069 | 0.398
*c1ccc(Cc2ccc(N3C(=O)c4ccc(-c5ccc6c(c5)C(=O)N(*)C6=O)cc4C3=O)cc2)cc1 (repeat unit) | 0.0532 | 1.58 | 6.35 | 0.0221 | 0.188
*c1ccc(Cc2ccc(N3C(=O)c4ccc(-c5ccc6c(c5)C(=O)N(*)C6=O)cc4C3=O)cc2Cl)c(Cl)c1 (repeat unit) | 0.0055 | 0.335 | – | 0.0107 | 0.0957
*c1ccc(Cc2ccc(N3C(=O)c4ccc(C(c5ccc6c(c5)C(=O)N(*)C6=O)(C(F)(F)F)C(F)(F)F)cc4C3=O)c(O)c2)cc1O (repeat unit) | 0.0562 | 4.85 | – | 0.168 | 1.22
*c1ccc(Cc2ccc(N3C(=O)c4ccc(Oc5ccc(Oc6ccc7c(c6)C(=O)N(*)C7=O)cc5)cc4C3=O)cc2)cc1 (repeat unit) | 0.0222 | 1.22 | 5.08 | 0.0357 | 0.242
*c1ccc(N(c2ccc(N3C(=O)c4ccc(C(c5ccc6c(c5)C(=O)N(*)C6=O)(C(F)(F)F)C(F)(F)F)cc4C3=O)cc2)c2ccc(N(c3ccc(OC)cc3)c3ccc(OC)cc3)cc2)cc1 (repeat unit) | 0.4 | 13 | – | 0.59 | 2.94
*c1ccc(N(c2ccc(N3C(=O)c4ccc(C(c5ccc6c(c5)C(=O)N(*)C6=O)(C(F)(F)F)C(F)(F)F)cc4C3=O)cc2)c2ccc(N(c3ccccc3)c3ccccc3)cc2)cc1 (repeat unit) | 1.24 | 11.8 | – | 0.45 | 1.97
*c1ccc(N(c2ccc(OC)cc2)c2ccc(N3C(=O)c4ccc(C(c5ccc6c(c5)C(=O)N(*)C6=O)(C(F)(F)F)C(F)(F)F)cc4C3=O)cc2)cc1 (repeat unit) | 0.5 | 16.8 | – | 0.89 | 4.28
